This assay has as its target T1, in-house produced N-terminally Twin-Strep-tagged hTGase 2 (Homo sapiens, UniProt P21980).
T1 construct: thrombin cleavage site (N); made in house; host or cells: E. coli BL21(DE3)
T1 sequence (P21980 1-687): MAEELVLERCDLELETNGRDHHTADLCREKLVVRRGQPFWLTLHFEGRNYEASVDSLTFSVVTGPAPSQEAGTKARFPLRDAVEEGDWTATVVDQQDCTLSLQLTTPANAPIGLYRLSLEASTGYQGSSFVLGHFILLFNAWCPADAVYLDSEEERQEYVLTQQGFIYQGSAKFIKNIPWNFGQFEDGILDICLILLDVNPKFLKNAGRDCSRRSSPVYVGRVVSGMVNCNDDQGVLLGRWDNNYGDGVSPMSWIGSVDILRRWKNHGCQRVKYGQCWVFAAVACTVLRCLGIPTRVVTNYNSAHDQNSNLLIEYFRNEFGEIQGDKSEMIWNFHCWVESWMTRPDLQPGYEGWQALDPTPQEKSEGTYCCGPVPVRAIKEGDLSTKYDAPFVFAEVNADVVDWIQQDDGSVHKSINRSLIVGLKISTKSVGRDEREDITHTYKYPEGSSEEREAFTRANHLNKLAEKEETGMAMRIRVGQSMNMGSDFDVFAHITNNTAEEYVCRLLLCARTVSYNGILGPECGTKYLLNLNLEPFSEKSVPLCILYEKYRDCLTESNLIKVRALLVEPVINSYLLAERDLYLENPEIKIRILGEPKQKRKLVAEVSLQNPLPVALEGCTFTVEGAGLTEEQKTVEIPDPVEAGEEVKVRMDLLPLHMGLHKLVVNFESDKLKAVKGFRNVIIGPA
In words: fluorescence anisotropy (FA)-based transamidase activity assay, in-house Twin-Strep-tagged hTGase 2. Format: biochemical. The text has this: The gene of hTGase 2 (Uniprot ID: P21980) with an N-terminal thrombin cleavage site was cloned into the pPSG-IBA105 vector containing the sequence for an N-terminal Twin-Strep-tag (IBA Lifesciences GmbH, Göttingen, Germany) to obtain the final plasmid pPSG-IBA105/TCS-hTGase 2. The plasmid construct was verified by DNA sequencing (Eurofins Genomics Germany GmbH) and then transformed into E. coli BL21(DE3) by the heat–shock method. hTGase 2-expressing E. coli cells were lysed by lysozyme treatment, and hTGase 2 was purified by affinity chromatography on an ÄKTA purifier UPC 10 FPLC equipped with a Strep-Tactin XT cartridge (GE Healthcare Europe GmbH, Freiburg, Germany). Identity and purity of self-produced hTGase 2 were verified by SDS-PAGE and Western Blot analysis, respectively. Protein concentration was determined according to Bradford. More detailed descriptions of the generation and characterization of the final plasmid construct pPSG-IBA105/TCS-hTGase 2 and the expression, purification, and characterization of the self-produced hTGase 2 protein will be published elsewhere (manuscript in preparation).
For the analysis of inhibitor 1 on self-produced hTGase 2, 2 µg/mL of the enzyme was used to guarantee comparability with the value reported by Wodtke et al., whereas all other experiments were performed with 5 µg/mL of either commercial or self-produced hTGase 2 (corresponding to 64.1 and 61.6 nM, respectively, when assuming 100% active protein). Parallel and perpendicular fluorescence intensities were measured over 1190 s in 35 s intervals (1) or over 1776 s in 48 s intervals (2, 3) and used to calculate the FA. Data of FA for the first 875 s (1) or 384 s (2, 3) were analyzed by linear regression, with slopes corresponding to enzymatic rates. Rates in the presence of inhibitor were normalized by dividing them by the respective rate in the absence of inhibitor, and normalized rates were analyzed according to Equation (S29) in Supplementary Materials to calculate values of IC50. Data analysis was performed with Microsoft Excel (Microsoft Office Professional Plus 2016, Microsoft® Corporation, USA) and GraphPad Prism version 5.03 or version 6.07 for Windows (GraphPad Software, La Jolla, CA, USA).
In general terms: Fluorescence polarisation rises when a labelled molecule tumbles more slowly, as on binding a larger partner.

A word on the IC50: it is the concentration needed to halve the response being measured.

Structures are written as SMILES.

`C=CC(=O)NCCCC[C@H](NC(=O)Cc1ccccc1I)C(=O)N1CCN(c2ccc([N+](=O)[O-])nc2)CC1` [Compound 2, N^α-(2-Iodophenylacetyl)-N^ε-acryloyl-L-lysin-4-(2-nitropyridin-5-yl)piperazide]: the IC50 (5 min pre-incubation of enzyme and inhibitor, mean (SEM) of three experiments) is 116 nM; 35.2 nM corresponded to half-maximal inhibition (30 min pre-incubation, hTGase 2 (in-house) 61.6 nM, mean (SEM)) (IC50).

The record behind these values is paper PMC9865645, “The Impact of N^ε-Acryloyllysine Piperazides on the Conformational Dynamics of Transglutaminase 2” (International Journal of Molecular Sciences, 2023).
